According to patent US9579406B2, “Phospholipid ether analogs as agents for detecting and locating cancer, and methods thereof” (Cellectar, Inc., priority 2004, dated 2017):

Legend:
[1] = MIRDOSE radiation dose estimates for the adult female; set-up: species or system human (from female rat biodistribution data)
Procedure: Dosimetry estimation regarding I-125-NM404 for an adult female patients were calculated based on SPECT imaging data using female non-tumor bearing rats following administration of I-131-NM404. The results are listed below:
The dosimetry data were calculated from SPECT imaging in rats using I-131-NM404 and then converted to I-125-NM404. The adrenal gland seems to be the dose-limiting or critical organ for radiation exposure. In the SPECT imaging experiments the thyroids of rats were unblocked. Thus, the thyroid calculations should be evaluated with caution.

[2] = tested on: human PC-3 tumor cells in tibia; test: Intratibial PC-3 bone tumor model, radioactivity scan fused with microCT; format: in vivo, NUDE mice; settings: 4 days following injection
Procedure: Following in vivo imaging of anesthetized mice, the prostate tumors were removed immediately, and imaged ex vivo on the same scanner (equipped with high resolution 1 mm collimator and 2-D acquisition and analysis software) in order to avoid tissue attenuation associated with the low energy of iodine-125 (FIG. 21). […] In an attempt to simulate bone metastases another experiment was performed wherein human PC-3 tumor cells were implanted into the tibia of immune compromised NUDE mice (n=6) according to a recent reports. Following tumor cell inoculation, mice were scanned serially by high-resolution microCT in order to monitor bone tumor development (FIG. 22). Once bone deterioration was detected, iodine-125 labeled NM404 was administered intravenously via tail vein. Mice were scanned for radioactivity and by microCT 4 days post NM404 administration. Radioactivity scans were fused with microCT scans (FIG. 23) to corroborate NM404 radioactivity and tumor location.

[3] = tested on: spontaneous lung tumor; test: Bioscan imaging of spontaneous lung tumor; format: in vivo, Apc^Min mouse; settings: 4 days post injection
Description: FIG. 13. Bioscan image (A) obtained 4 days post ^125I-NM404 injection into an Apc^Min mouse.
(§1) NM404 has now been evaluated in 27 animal tumor models, including several lung, and it is clear that once the agent enters tumor cells, it reaches a metabolic dead end and becomes trapped. […] NM404 is also retained in spontaneous murine lung tumors (FIG. 13). Using ^125I-labeled NM404, the inventors have been able to image mammary and prostate tumors in mice in excess of 60 days. […] Imaging and tissue distribution studies performed in mouse models aimed at determining the uptake characteristics in a wide variety of tumor models are summarized in Table 2.

[4] = Human safety study of unlabeled NM404 in normal volunteers; format: in vivo
Procedure: Formal toxicology studies of NM404 in male rats and rabbits were performed at the Toxicology Research Center of the State University of New York at Buffalo under the direction of Dr. Paul Kostyniak. Drug vehicle and drug product were provided to Dr. Kostyniak by Dr. Raymond Counsell of the University of Michigan for testing as described in the appended synopses of Study 27 and Study 28. […] Human safety studies of unlabeled NM404 were initiated in normal male humans at a mass of 10 times the anticipated imaging dose and about 21 times the anticipated therapy dose. […] This toxicology study was performed under GLP conditions.
Safety assessment in normal male subjects healthy normal female subjects were carried out and it was determined that a dose level of 3 μg/kg of C-NM-404 is safe to administer to male subjects. […] A dose level of 3 μg/kg of C-NM-404 is safe to administer to female subjects.

[5] = MIRD extrapolation of rat tissue distribution data to permissible human dose; set-up: species or system human (from rat data)
Description: Accordingly the inventors have conducted the preliminary pharmacokinetic studies in human lung cancer patients at 1 mCi. Similar extrapolative calculation of the dosimetry for ^124I-NM404 afforded a similar 2 mCi dose level again based on projected dosimetry to the adrenals and bladder wall. Preliminary human data (5 patients), however, indicate very little uptake and retention of the agent into any abdominal organ (including the bladder and adrenals) with the exception of the liver which returns to background levels within 11 days.
Dosing of radioiodinated ^124I NM404 will be based on MIRD extrapolation of the iodine-131 dosimetry data derived from this ongoing study. The ^131I-NM404 dose is currently calculated as follows: Animal biodistribution data is used to determine the percentage of injected dose/organ at varying time points. These animal data are extrapolated to man by means of MIRD formalism (MIRDOSE PC v3.1) using standard conversion factors for differences in organ mass and anatomy between rat and standard man, providing predicted human organ doses; Based on these predicted doses, the permissible mCi dose to be injected into humans is determined using the maximal doses legally permitted by RDRC regulations for specific human tissue as defined in the Federal Register (21CFR Part 361.1) e.g. whole body, blood, blood forming tissues, eye lens, gonads—3 rem/dose; any other tissue—5 rem/dose. This approach was previously used to bring both NM324 and NM404 to clinical use, resulting in a calculated dose of 1 mCi.

[6] = tested on: prostate and A549 lung cancer tumors; test: Comparative biodistribution in SCID mouse prostate and A549 lung cancer tumor models; settings: in vivo
Procedure: In one such example in a rat mammary tumor model, tumor-to-normal tissue ratios reached a maximum at 96 hours with a tumor-to-blood ratio of 8.6 and tumor-to-muscle ratio of 20:1.
Extensive biodistribution data for the prototype agent ^125I-NM324 in several tumor models has previously been reported. […] For example, in a rat mammary tumor model, tumor-to-normal tissue ratios reached a maximum at 96 hours with a tumor-to-blood ratio of 8.6 and tumor-to-muscle ratio of 20:1. […] Comparative biodistribution data for NM324 and NM404 in SCID mice have been obtained in prostate and A549 lung cancer tumor models.

[7] = tested on: Colon LS-180; test: Tumor models examined with NM404 (Table 2); format: in vivo, Nude Mouse; settings: Adenocarcinoma
Description: as §1
(§2) Although tumor retention can be explained by a lack of metabolic phospholipase enzymes in the tumor cell membranes, the exact mechanism of tumor cell uptake is unknown. […] The inventors are currently evaluating the selectivity of NM404 in a unique mouse tumor model developed at Wisconsin, wherein both preneoplastic hyperplasias and malignant adenocarcinomas form spontaneously in the mammary gland. […] If this initial observation is validated, then via genomic and or proteomic analysis the inventors may be able to identify a key genetic difference between malignant tumors and their non malignant predecessor cells. This could identify a completely new molecular therapeutic target that may be universal for all types of cancer.

[8] = tested on: Lung NCI H-69 (Oat Cell); test: Tumor models examined with NM404 (Table 2); format: in vivo, Nude Mouse; settings: Small cell carcinoma
Description: as §1, §2

[9] = tested on: Melanoma A-375; test: Tumor models examined with NM404 (Table 2); format: in vivo, Nude Mouse
Description: as §1, §2

[10] = tested on: Ovarian HTB-77; test: Tumor models examined with NM404 (Table 2); format: in vivo, Nude Mouse; settings: Adenocarcinoma
Description: as §1, §2

| SMILES | activity for 3 rads to Ovaries [1] [mCi] | activity for 5 rads to Adrenals [1] [mCi] | activity for 5 rads to Thyroids [1] [mCi] | correlation of radioactivity with tibial tumor [2] | uptake into spontaneous lung tumor [3] | dose level safe to administer ([4]; female subjects) [µg/kg] | dose level safe to administer ([4]; male subjects) [µg/kg] | toxicity ([4]; normal male humans, 10 times the anticipated imaging dose) | calculated dose for clinical use [5] [mCi] | 5 rad dose to adrenals ([5]; new animal data) [mCi] | 5 rad testes dose ([5]; new animal data) [mCi] | tumor uptake [6] | NM404 Tumor Localization [7] | NM404 Tumor Localization [8] | NM404 Tumor Localization [9] | NM404 Tumor Localization [10] |
| --- | --- | --- | --- | --- | --- | --- | --- | --- | --- | --- | --- | --- | --- | --- | --- | --- |
| C[N+](C)(C)CCOP(=O)([O-])OCCCCCCCCCCCCCCCCCCc1ccc([125I])cc1 [Compound I-125-NM404] | 20 | 18 | 4.5 | Focal NM404 activity correlates well with tibial PC3 tumor | intense uptake of NM404 into the tumor |  |  |  |  |  |  |  |  |  |  |  |
| C[N+](C)(C)CCOP(=O)([O-])OCCCCCCCCCCCCCCCCCCc1ccc(I)cc1 [NM-404, 18-(4-iodophenyl)-octadecylphosphocholine] |  |  |  |  |  | 3 | 3 | no toxicity attributable to the drug substance | 1 | 2.2 | 2.1 | exceeding 25 % of the injected dose | Yes (Localization defined as >5% injected dose per gram tumor basis based on tissue distribution data) | Yes (Localization defined as >5% injected dose per gram tumor basis based on tissue distribution data) | Yes (Localization defined as >5% injected dose per gram tumor basis based on tissue distribution data) | Yes (Localization defined as >5% injected dose per gram tumor basis based on tissue distribution data) |
